US20220324835A1 (Nurix Therapeutics, Inc., priority 2018, published 2022)
Like-named read-outs stand apart in the source and are kept apart here.

Key:
[1] = molecular target: Cbl-b (residues 36-427) (Homo sapiens, UniProt Q13191); experiment: Cbl-b binding assay (SPR, Biacore T200); conditions: 20° C., 1:1 binding model
Outline: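 Affinities derived from global 1:1 steady-state or kinetic fits of double-referenced, solvent-corrected SPR data, 20 °C, NeutrAvidin-capture chip. Compound series (top 100 or 50 μM, 8–10 points) injected 50 s, 90–180 s dissociation. Asterisked values used 50 mM instead of 100 mM NaCl and 30 nM Src kinase.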

[2] = system: T-cell; experiment: CD25 cell surface staining on T-cells co-stimulated with anti-CD3 and anti-CD28 antibody (Biological Example 2); format: cell-based, human; conditions: Homo sapiens, T-cell; for fold induction at 4 µM: 4 μM Cbl-b inhibitor
Outline: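 No assay protocol given; T-cells stimulated with anti-CD3 alone or anti-CD3 plus anti-CD28, with or without Cbl-b inhibitor. Activation read as IL-2 secretion or CD25 surface staining, expressed as fold over baseline from uninhibited cells […].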

[3] = 0.3 μM Cbl-b inhibitor, fold change over baseline (anti-CD3/anti-CD28 stimulated T-cells without inhibitor), read-out: CD25 staining Anti-CD3/Anti-CD28 stimulation
[4] = 1 μM Cbl-b inhibitor, fold change over baseline (anti-CD3/anti-CD28 stimulated T-cells without inhibitor), read-out: CD25 staining Anti-CD3/Anti-CD28 stimulation
[5] = fold change over baseline, 0.3 μM Cbl-b inhibitor, primary human total T-cells, read-out: CD25 staining Anti-CD3/Anti-CD28 stimulation
[6] = fold change over baseline, 1 μM Cbl-b inhibitor, primary human total T-cells, read-out: CD25 staining Anti-CD3/Anti-CD28 stimulation
[7] = fold change over baseline, primary human total T-cells, read-out: CD25 staining Anti-CD3/Anti-CD28 stimulation
[8] = read-out: CD25 staining, Anti-CD3/Anti-CD28 stimulation, fold change over baseline

Chain of Cbl-b (residues 36-427) (Q13191 36-427): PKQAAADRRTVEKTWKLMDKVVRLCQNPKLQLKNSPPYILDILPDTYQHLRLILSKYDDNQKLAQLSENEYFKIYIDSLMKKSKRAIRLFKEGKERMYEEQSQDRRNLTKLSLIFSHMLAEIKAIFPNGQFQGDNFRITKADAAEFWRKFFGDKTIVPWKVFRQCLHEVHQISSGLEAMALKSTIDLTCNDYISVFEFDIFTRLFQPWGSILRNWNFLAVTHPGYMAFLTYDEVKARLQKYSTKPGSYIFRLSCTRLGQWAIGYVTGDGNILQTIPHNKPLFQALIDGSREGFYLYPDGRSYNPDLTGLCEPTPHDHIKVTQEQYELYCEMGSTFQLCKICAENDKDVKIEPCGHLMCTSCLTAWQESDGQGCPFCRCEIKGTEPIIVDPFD

Compound | Kd [1] [nM] | fold induction at 0.3 µM [2, 3] | fold induction at 1 µM [2, 4] | fold induction at 0.3 µM [2, 5] | fold induction at 1 µM [2, 6] | fold induction at 4 µM [2, 7] | fold induction at 0.3 µM [2, 8] | fold induction at 1 µM [2, 8]
C[C@H](c1cc2c(c(C(F)(F)F)c1)CN(c1cccc(C3(C(F)(F)c4nncn4C)COC3)c1)C2=O)N1CC[C@H](F)C1 [Example 571, 2-(3-(3-(difluoro(4-methyl-4H-1,2,4-triazol-3-yl)methyl)oxetan-3-yl)phenyl)-6-((R)-1-((S)-3-fluoropyrrolidin-1-yl)ethyl)-4-(trifluoromethyl)isoindolin-1-one] | < 100 | > 1.76 | > 1.76 | – | – | – | – | –
Cc1cc(C(=O)Nc2cccc([C@H](C)Sc3nncn3C)c2)nc(C(F)(F)F)c1 [Compound 65, (S)-4-methyl-N-(3-(1-((4-methyl-4H-1,2,4-triazol-3-yl)thio)ethyl)phenyl)-6-(trifluoromethyl)picolinamide] | 100 to 300 | – | – | 1.01 to 1.3 | 1.01 to 1.3 | 1.01 to 1.3 | – | –
Cc1cc(C(=O)Nc2cccc([C@H](C)Cc3nncn3C)c2)nc(C(F)(F)F)n1 [Compound 194, (R)-6-methyl-N-(3-(1-(4-methyl-4H-1,2,4-triazol-3-yl)propan-2-yl)phenyl)-2-(trifluoromethyl)pyrimidine-4-carboxamide] | 100 to 300 | – | – | 1.01 to 1.3 | 1.51 to 1.75 | > 1.76 | – | –
C[C@H](Cc1nncn1C)c1cc(NC2COC2)nc(N2Cc3c(cccc3C(F)(F)F)C2=O)c1 [Compound 352, 2-{4-[(2R)-1-(4-methyl-4H-1,2,4-triazol-3-yl)propan-2-yl]-6-[(oxetan-3-yl)amino]pyridin-2-yl}-4-(trifluoromethyl)-2,3-dihydro-1H-isoindol-1-one] | 100 to 300 | – | – | 1.01 to 1.3 | 1.01 to 1.3 | 1.31 to 1.5 | – | –
Cn1cnnc1CC1(c2cccc(N3Cc4c(cc(CN5CCC(C)(F)CC5)cc4C(F)(F)F)C3=O)c2)COC1 [Example 620, 6-((4-fluoro-4-methylpiperidin-1-yl)methyl)-2-(3-(3-((4-methyl-4H-1,2,4-triazol-3-yl)methyl)oxetan-3-yl)phenyl)-4-(trifluoromethyl)isoindolin-1-one] | < 100 | 1.31 to 1.5 | 1.31 to 1.5 | – | – | – | – | –
C[C@H](Cc1nncn1C)c1cccc(NC(=O)c2cc(C(=O)N3CC[C@H](O)C3)cc(C(F)(F)F)n2)c1 [Compound 220, 4-((S)-3-hydroxypyrrolidine-1-carbonyl)-N-(3-((R)-1-(4-methyl-4H-1,2,4-triazol-3-yl)propan-2-yl)phenyl)-6-(trifluoromethyl)picolinamide] | < 100 | – | – | 1.31 to 1.5 | 1.51 to 1.75 | > 1.76 | – | –
COc1ccc(C(=O)Nc2cccc([C@H](C)Sc3nncn3C)c2)nc1C1CC1 [Compound 93, 6-cyclopropyl-5-methoxy-N-[3-[(1S)-1-[(4-methyl-1,2,4-triazol-3-yl)sulfanyl]ethyl]phenyl]pyridine-2-carboxamide] | 100 to 300 | – | – | 1.01 to 1.3 | 1.01 to 1.3 | 1.01 to 1.3 | – | –
C[C@H](Cc1nncn1C)c1cccc(NC(=O)c2ccnc(C3CC3)n2)c1 [Compound 199, (R)-2-cyclopropyl-N-(3-(1-(4-methyl-4H-1,2,4-triazol-3-yl)propan-2-yl)phenyl)pyrimidine-4-carboxamide] | 100 to 300 | – | – | 1.01 to 1.3 | 1.31 to 1.5 | 1.51 to 1.75 | – | –
C[C@H](Cc1nncn1C)c1cccc(N2Cc3c(cc(C(=O)N4CC[C@H](O)C4)cc3C(F)(F)F)C2=O)c1 [Compound 274, 6-((S)-3-hydroxypyrrolidine-1-carbonyl)-2-(3-((R)-1-(4-methyl-4H-1,2,4-triazol-3-yl)propan-2-yl)phenyl)-4-(trifluoromethyl)isoindolin-1-one] | < 100 | – | – | 1.01 to 1.3 | 1.01 to 1.3 | 1.31 to 1.5 | – | –
C[C@H](Sc1nncn1C)c1cccc(NC(=O)c2cccc(C3CC3)n2)c1 [Compound 72, (S)-6-cyclopropyl-N-(3-(1-((4-methyl-4H-1,2,4-triazol-3-yl)thio)ethyl)phenyl)picolinamide] | 100 to 300 | – | – | 1.31 to 1.5 | 1.51 to 1.75 | 1.51 to 1.75 | – | –
C[C@H](Sc1nncn1C)c1cccc(NC(=O)c2ccc(CO)c(C3CC3)n2)c1 [Compound 89, 6-cyclopropyl-5-(hydroxymethyl)-N-[3-[(1S)-1-[(4-methyl-1,2,4-triazol-3-yl)sulfanyl]ethyl]phenyl]pyridine-2-carboxamide] | 100 to 300 | – | – | 1.01 to 1.3 | 1.01 to 1.3 | 1.31 to 1.5 | – | –
C[C@H](Sc1nncn1C)c1cccc(NC(=O)c2ccc(F)c(C3CC3)n2)c1 [Compound 91, 6-Cyclopropyl-5-fluoro-N-[3-[(1S)-1-[(4-methyl-1,2,4-triazol-3-yl)sulfanyl]ethyl]phenyl]pyridine-2-carboxamide] | 100 to 300 | – | – | < 1 | < 1 | 1.01 to 1.3 | – | –
CNc1cc([C@H](C)Cc2nncn2C)cc(N2Cc3c(cccc3C(F)(F)F)C2=O)n1 [Compound 363, (R)-2-(4-(1-(4-methyl-4H-1,2,4-triazol-3-yl)propan-2-yl)-6-(methylamino)pyridin-2-yl)-4-(trifluoromethyl)isoindolin-1-one] | < 100 | – | – | 1.01 to 1.3 | 1.01 to 1.3 | 1.31 to 1.5 | – | –
CCOc1cc([C@H](C)Cc2nncn2C)cc(N2Cc3c(cccc3C(F)(F)F)C2=O)n1 [Compound 358, (R)-2-(6-ethoxy-4-(1-(4-methyl-4H-1,2,4-triazol-3-yl)propan-2-yl)pyridin-2-yl)-4-(trifluoromethyl)isoindolin-1-one] | < 100 | – | – | 1.01 to 1.3 | 1.31 to 1.5 | 1.31 to 1.5 | – | –
C[C@H](Cc1nncn1C)c1cccc(N2Cc3c(cc(C(=O)N4CC(O)C4)cc3C(F)(F)F)C2=O)c1 [Compound 276, (R)-6-(3-hydroxyazetidine-1-carbonyl)-2-(3-(1-(4-methyl-4H-1,2,4-triazol-3-yl)propan-2-yl)phenyl)-4-(trifluoromethyl)isoindolin-1-one] | 301 to 1000 | – | – | 1.01 to 1.3 | 1.01 to 1.3 | 1.31 to 1.5 | – | –
C[C@H](Cc1nncn1C)c1cccc(N2Cc3c(cc(C(=O)N4C[C@@H](O)C[C@H]4C)cc3C(F)(F)F)C2=O)c1 [Compound 275, 6-((2R,4S)-4-hydroxy-2-methylpyrrolidine-1-carbonyl)-2-(3-((R)-1-(4-methyl-4H-1,2,4-triazol-3-yl)propan-2-yl)phenyl)-4-(trifluoromethyl)isoindolin-1-one] | < 100 | – | – | 1.31 to 1.5 | 1.51 to 1.75 | > 1.76 | – | –
Cc1ccc(C(=O)Nc2cccc([C@H](C)Sc3nncn3C)c2)nc1C1CC1 [Compound 54, (S)-6-cyclopropyl-5-methyl-N-(3-(1-((4-methyl-4H-1,2,4-triazol-3-yl)thio)ethyl)phenyl)picolinamide] | 100 to 300 | – | – | 1.01 to 1.3 | 1.01 to 1.3 | 1.01 to 1.3 | – | –
Cn1cnnc1[C@H](F)C1(c2cccc(N3Cc4c(cc(CN5CCC(F)CC5)cc4C(F)(F)F)C3=O)c2)COC1 [Example 670b, (R)-2-(3-(3-(fluoro(4-methyl-4H-1,2,4-triazol-3-yl)methyl)oxetan-3-yl)phenyl)-6-((4-fluoropiperidin-1-yl)methyl)-4-(trifluoromethyl)isoindolin-1-one] | < 100 | > 1.76 | > 1.76 | – | – | – | – | –
C[C@H](c1cc2c(c(C(F)(F)F)c1)CN(c1cccc(C3([C@H](F)c4nncn4C)COC3)c1)C2=O)N1CCC2(CC2)C1 (stereo in doubt) [Example 575, 6-((R)-1-(5-Azaspiro[2.4]heptan-5-yl)ethyl)-2-(3-(3-((S)-fluoro(4-methyl-4H-1,2,4-triazol-3-yl)methyl)oxetan-3-yl)phenyl)-4-(trifluoromethyl)isoindolin-1-one] | – | 1.31 to 1.5 | 1.31 to 1.5 | – | – | – | – | –
C[C@@H]1CN(Cc2cc3c(c(C(F)(F)F)c2)CN(c2cccc(C4(Cc5nncn5C)COC4)c2)C3=O)CCO1 [Example 663b, (R)-2-(3-(3-((4-methyl-4H-1,2,4-triazol-3-yl)methyl)oxetan-3-yl)phenyl)-6-((2-methylmorpholino)methyl)-4-(trifluoromethyl)isoindolin-1-one] | – | 1.31 to 1.5 | 1.31 to 1.5 | – | – | – | – | –
CN1CC2CCC(C1)N2c1cc2c(c(C(F)(F)F)c1)CN(c1cccc(C3(Cc4nncn4C)COC3)c1)C2=O [Compound 386, 2-(3-(3-((4-Methyl-4H-1,2,4-triazol-3-yl)methyl)oxetan-3-yl)phenyl)-6-(3-methyl-3,8-diazabicyclo[3.2.1]octan-8-yl)-4-(trifluoromethyl)isoindolin-1-one] | – | – | – | – | – | – | 1.31 to 1.5 | 1.31 to 1.5
